Patent publication US20180194805A1, “USE OF PENTAPEPTIDE-3 KTTKS OR HEXAPEPTIDE-3 KTTKSF FOR TREATING DEGENERATIVE JOINT DISEASE” (Advanced Healthtech Biopeptide Laboratories Co., LTD., priority 2017, published 2018)
Entries after “also recorded” stand apart in the source; their conditions may differ.

Legend:
[1] = test system: cartilage cells of the growth plate; assay: Cultivated cartilage cells: DNA content, collagen and proteoglycan production; assay type: cell-based, rabbits; conditions: 250 ppm; samples after 3, 7 and 14 days
Method: Firstly, cartilage cells of the growth plate of the same rabbits were taken and continuously cultivated. The cultivated cells were divided into three groups. In Group I, only 250 ppm of pentapeptide-3 KTTKS was added. In Group II, only 100 ng/ml of collagen was added. In Group III, 250 ppm of pentapeptide-3 KTTKS and 100 ng/ml of collagen were added. A negative control group was also used. After new tissues of cartilage grew at a lower portion of a centrifuge tube, the new tissues were transferred to a 24-well platefor continuing cultivation, wherein the culture medium was replaced for every 2 days. During the cultivation, samples were collected after three (3), seven (7) and fourteen (14) days, and then were analyzed.
For the histological and histochemical measurements, samples were collected, and HE dying and immunochemical measurement (S-P method) were executed.
The content of DNA in the cells of cartilage was determined by the method of Hoechst 33258.
Extracellular matrix of cartilage primarily comprises collagen and proteoglycan composed of glycosaminoglycan and core protein, in addition to water. The content of the matrix and its status of the metabolism were quantitatively analyzed by determining a level of the collagen and proteoglycan in the new tissues of cartilage.
The synthesis of the collagen of the cartilage is measured by the hydroxyproline method. Because the content of hydroxyproline in the collagen was substantially constant (about 10% by weight), an amount of hydroxyproline could be used to analyze the amount of the collagen of the cartilage by using a commercial kit including the hydroxyproline reagent. The content of the collagen in the samples was calculated.

[2] = test system: NO, SOD and MDA in synovial liquid; assay: Biochemical indicators (NO, SOD, MDA) in synovial liquid of the rabbit model; assay type: in vivo, New Zealand white rabbits
From the text: As used in the present invention, all of the methods for measuring SOD, NO and MDA in synovial liquid and collagen and proteoglycan in extracellular matrix of cartilage have been known and conventionally used in the art.
(§1) Fifteen (15) healthy adult New Zealand white rabbits were randomly divided into three (3) groups: a normal control group (Group A), a model control group (Group B) and a test group subject to intra-articular injection of a test peptide (Group C), with five (5) rabbits included in each of the groups. Fasting was conducted within four hours before surgical operations. Ketamine (10 mg/kg) and atropine (0.2 mg/kg) were injected in the muscle of each rabbit. After anesthesia took effect, each rabbit was confined to an operating table. An 8 cm-long longitudinal scission was made in the back of each knee before the skin was lifted. From the back of the knee, the articular capsule and synovial were opened. Then, the knee was bent for 90° to expose the cartilage at a lower end of the femur. Two cylindrical cutouts of 3 mm in diameter and 3 mm in depth were made. Coagulation was removed from each of the cutouts. The joint cavity was washed with a sterile saline solution. Stitches were made for each section. After the surgical operation, injection of penicillin was conducted against infection for a week. After five (5) days, each rabbit was able to eat and stand normally.
(§2) Two (2) weeks after the surgical operation, the rabbits of Group A and Group B were not treated, whereas the rabbits of Group C were subject to intra-articular injection of 250 ppm/kg of pentapeptide-3 KTTKS once for every seven (7) days, and the injection lasted for twelve (12) weeks. Articular injection of 0.5 ml of saline was executed, and then 0.2 ml of synovial liquid was collected. The articular capsule was cut and opened, synovial was removed, and an entire tibial joint was taken. Arthropathy in arthrodial cartilage was observed by bare eyes and also via surgical lens. Slices were taken, dyed by hematoxylin and eosin stain (HE Stain) and toluidine blue, and then observed in an optical microscope.

[3] = test system: arthrodial cartilage of the knee joint; assay: Rabbit knee cartilage injury model: observation by bare eyes and histomorphometry; assay type: in vivo, New Zealand white rabbits; conditions: intra-articular 250 ppm/kg once every 7 days
Method: as §1, §2

[4] = Group C: intra-articular injection of 250 ppm/kg once every 7 days for 12 weeks
[5] = intra-articular 250 ppm/kg once every 7 days, 12 weeks

pentapeptide-3 KTTKS (printed: Lys-Thr-Thr-Lys-Ser) [pentapeptide Lys-Thr-Thr-Lys-Ser; test peptide injected intra-articularly in Group C]
Content of DNA of the cells of the cartilage versus control group (Hoechst 33258, FIG. 1) [1]: statistically different from that of the control group
Hyperosteogeny of the cells of the cartilage [1]: considerable hyperosteogeny
Production of collagen in cartilage tissue (hydroxyproline method, FIG. 2) [1]: considerably increased
Production of proteoglycan of cartilage tissue (FIG. 3) [1]: considerably increased
MDA level in synovial liquid [2, 4]: 15.23 ± 5.62 c/mol · L^−1
NO level in synovial liquid [2, 4]: 25.11 ± 3.65 c/mol · L^−1
SOD level in synovial liquid [2, 4]: 6.18 ± 2.17 c/mol · L^−1
Change of MDA level in synovial liquid compared with model control Group B [2, 5]: considerably reduced
Change of SOD level in synovial liquid compared with model control Group B [2, 5]: considerably increased
Histomorphometric observation of repaired tissues (HE stain, toluidine blue) ([3]; after 12 weeks): the repaired tissues were not substantially different from the normal tissues of the knee joint; also recorded: considerably repaired the damaged tissues of cartilage
Repair of knee joint injuries observed by bare eyes ([3]; after 12 weeks): the injuries were completely repaired
Morphosis of the arthrodial cartilage compared with model control Group B ([3]; 12 weeks): significant improvement
